Experimental data reported in US20140228440A1, “1-AMINO-ALKYLCYCLOHEXANE DERIVATIVES FOR THE TREATMENT OF INFLAMMATORY SKIN DISEASES” (MERZ PHARMA GmbH & CO. KGaA, priority 2008, published 2014).

How the values were obtained:
Test in all cases: MIC and MBC by the agar dilution method
Format in all cases: cell-based
Conditions in all cases: pH 5.5
[1] = system: Propionibacterium granulosum ATCC 11829
Experimental: (§1) To assess the anti-microbial potency of Neramexane against acne relevant bacterias the minimal inhibitory concentration (MIC) and minimal bactericidal concentration (MBC) against the following bacterias is established: The MICs of the samples are determined using the agar dilution method based on DIN 58940. Petri dishes of 5.5 cm diameter are poured with 2.5 ml of freshly prepared Mueller-Hinton agar (Merck company, Cat-No 1.05437) or Wilkins-Chalgren-Agar (Oxoid company, Cat-No CM643), maintained in liquid form at 50° C., to which the sample dilutions at various concentrations have been added at 50.0 vol.-%. To prepare the starting sample dilutions, a 12.5%, 3.12% suspension of the respective sample solution is prepared with Aqua purificata. From these stock-solutions, further dilutions are prepared with Aqua purificata. All test compounds are adjusted to pH 5.5. For test product no. 1, separate dilutions adjusted to pH 6.0 and pH 7.4 are also prepared. For inoculation, 1 μl of the respective germ suspension is placed on the centre of each agar plate. After drying, inoculated plates are incubated at 36.0±2.0° C. The basis for the length of incubation period is the respective growth control cultivated in parallel. The test microbe suspension is prepared by inoculating a few individual colonies of the respective bacteria into sterile saline solution until a turbidity corresponding to the McFarland standard 1.0 (approximately 10^8 cfu/ml) is reached. After that, the test microbe suspensions are further diluted 1:10 with saline solution and the microbial counts (see Table 21) are determined by the surface spread method using a spiral plater. The agar plates are incubated under the conditions given in Table 22 and subsequently evaluated. The MIC-values as given represent the lowest concentration of the active substance at which there is no macroscopically visible growth. Minimal, barely visible growth or few small individual colonies are evaluated as inhibition. [table] All negative tests of the determination of the minimal bactericial concentration are the basis of verification of remaining germs, the inoculated agar segments are cut and put in Mueller-Hinton-Bouillon (germ 1) or Wilkins-Chalgren-Bouillon (germs 2-4). After an adequate incubation period at 36.0±2.0° C. (as judged from a control without test compound), the tests are checked manually on microbial growth (=turbidity) and the minimal bactericidal concentration is determined. MBC indicates the concentration without marked turbidity. Grown germs are checked for identity to rule out unspecific contaminations. The following results are summarized and tabulated: • a) Results of the Minimal Inhibitory Concentration (MIC)* • b) Results of the Minimal Bactericidal Concentration (MBC) *The MIC is the concentration without macroscopical growth. Scarcely apparent, minimum growth or few single colonies are not considered. The controls must have a respectively good developed growth. There must be no growth on the agar plates for the sterile control. The growth of bacteria is indicated for the duplicate plates by a +(i.e., growth) or a −(i.e., no growth), +− indicates weak growth on both plates or growth on one plate and no growth on the other plate. All bacteria show appropriate growth on the respective control plate not containing any test compound. No influence of the used diluent (Aqua purifacata) was observed. No contamination is observed on the control-plates.

[2] = system: Propionibacterium acnes ATCC 11828
Experimental: as §1

[3] = system: Propionibacterium avidum ATCC 25577
Experimental: as §1

[4] = system: Staphylococcus epidermidis ATCC 12228
Experimental: as §1

[5] = final concentration 0.002 % (Neramexane-HCl)
[6] = final concentration 0.005 % (Neramexane-HCl)
[7] = final concentration 0.01 % (Neramexane-HCl)
[8] = final concentration 0.02 % (Neramexane-HCl)
[9] = final concentration 0.04 % (Neramexane-HCl)
[10] = final concentration 0.08 % (Neramexane-HCl)
[11] = final concentration 0.16 % (Neramexane-HCl)
[12] = final concentration 0.31 % (Neramexane-HCl)
[13] = final concentration 0.63 % (Neramexane-HCl)
[14] = final concentration 1.56 % (Neramexane-HCl)

Which “growth of bacteria on duplicate plates (MIC determination)” value (“growth of bacteria on duplicate plates” for short) [1, 5] does the source give for CC1(C)CC(C)(C)CC(C)(N)C1.Cl [Neramexane-HCl] here?
The value was “+ +”.

What about the “growth of bacteria on duplicate plates” value [1, 6] of the same compound?
Its value is “+ +”.

What about the “growth of bacteria on duplicate plates” value [1, 7] of the same compound?
The value was “+ +”.

What about the “growth of bacteria on duplicate plates” value [1, 8] of the same compound?
The value was “+ +”.

What about the “growth of bacteria on duplicate plates” value [1, 9] of the same compound?
Its value is “+ +”.

What about the “growth of bacteria (MBC determination)” value [1, 10] of the same compound?
Its value is “+ +”.

What about the “growth of bacteria on duplicate plates” value [1, 10] of the same compound?
The value was “− −”.

And the “growth of bacteria (MBC determination)” value [1, 11]?
Its value is “+ +”.

What about the “growth of bacteria on duplicate plates” value [1, 11] of the same compound?
The value was “− −”.

What about the “growth of bacteria (MBC determination)” value [1, 12] of the same compound?
The value was “+ +”.

What about the “growth of bacteria on duplicate plates” value [1, 12] of the same compound?
The value was “− −”.

What about the “growth of bacteria (MBC determination)” value [1, 13] of the same compound?
The value was “− −”.

And the “growth of bacteria on duplicate plates” value [1, 13]?
The value was “− −”.

And the “growth of bacteria (MBC determination)” value [1, 14]?
Its value is “− −”.

What about the “growth of bacteria on duplicate plates” value [1, 14] of the same compound?
Its value is “− −”.

And the MBC [1]?
The MBC was 0.63%.

What about the MIC [1] of the same compound?
The MIC was 0.08%.

What about the “growth of bacteria on duplicate plates” value [2, 5] of the same compound?
The value was “+ +”.

And the “growth of bacteria on duplicate plates” value [2, 6]?
Its value is “+ +”.

What about the “growth of bacteria on duplicate plates” value [2, 7] of the same compound?
The value was “+ +”.

And the “growth of bacteria on duplicate plates” value [2, 8]?
Its value is “+ +”.

What about the “growth of bacteria on duplicate plates” value [2, 9] of the same compound?
Its value is “+ +”.

And the “growth of bacteria on duplicate plates” value [2, 10]?
Its value is “+ +”.

And the “growth of bacteria (MBC determination)” value [2, 11]?
Its value is “+ +”.

And the “growth of bacteria on duplicate plates” value [2, 11]?
Its value is “− −”.

What about the “growth of bacteria (MBC determination)” value [2, 12] of the same compound?
Its value is “+ +”.

And the “growth of bacteria on duplicate plates” value [2, 12]?
The value was “− −”.

And the “growth of bacteria (MBC determination)” value [2, 13]?
The value was “+ +”.

And the “growth of bacteria on duplicate plates” value [2, 13]?
Its value is “− −”.

What about the “growth of bacteria (MBC determination)” value [2, 14] of the same compound?
The value was “− −”.

What about the “growth of bacteria on duplicate plates” value [2, 14] of the same compound?
The value was “− −”.

What about the MBC [2] of the same compound?
The MBC was 1.56%.

What about the MIC [2] of the same compound?
Its MIC is 0.16%.

And the “growth of bacteria on duplicate plates” value [3, 5]?
The value was “+ +”.

And the “growth of bacteria on duplicate plates” value [3, 6]?
Its value is “+ +”.

And the “growth of bacteria on duplicate plates” value [3, 7]?
Its value is “+ +”.

And the “growth of bacteria on duplicate plates” value [3, 8]?
Its value is “+ +”.

And the “growth of bacteria on duplicate plates” value [3, 9]?
Its value is “+ +”.

What about the “growth of bacteria on duplicate plates” value [3, 10] of the same compound?
The value was “+ −”.

What about the “growth of bacteria (MBC determination)” value [3, 11] of the same compound?
Its value is “+ +”.

And the “growth of bacteria on duplicate plates” value [3, 11]?
Its value is “− −”.

What about the “growth of bacteria (MBC determination)” value [3, 12] of the same compound?
Its value is “+ +”.

And the “growth of bacteria on duplicate plates” value [3, 12]?
Its value is “− −”.

What about the “growth of bacteria (MBC determination)” value [3, 13] of the same compound?
The value was “+ +”.

What about the “growth of bacteria on duplicate plates” value [3, 13] of the same compound?
The value was “− −”.

And the “growth of bacteria (MBC determination)” value [3, 14]?
Its value is “− −”.

And the “growth of bacteria on duplicate plates” value [3, 14]?
The value was “− −”.

And the MBC [3]?
The MBC was 1.56%.

What about the MIC [3] of the same compound?
Its MIC is 0.16%.

What about the “growth of bacteria on duplicate plates” value [4, 5] of the same compound?
Its value is “+ +”.

What about the “growth of bacteria on duplicate plates” value [4, 6] of the same compound?
Its value is “+ +”.

What about the “growth of bacteria on duplicate plates” value [4, 7] of the same compound?
The value was “+ +”.

What about the “growth of bacteria on duplicate plates” value [4, 8] of the same compound?
Its value is “+ +”.

And the “growth of bacteria on duplicate plates” value [4, 9]?
Its value is “+ +”.

What about the “growth of bacteria on duplicate plates” value [4, 10] of the same compound?
The value was “+ +”.

And the “growth of bacteria on duplicate plates” value [4, 11]?
Its value is “+ +”.

And the “growth of bacteria on duplicate plates” value [4, 12]?
Its value is “+ +”.

And the “growth of bacteria (MBC determination)” value [4, 13]?
The value was “+ +”.

And the “growth of bacteria on duplicate plates” value [4, 13]?
The value was “− −”.

And the “growth of bacteria (MBC determination)” value [4, 14]?
Its value is “+ +”.

What about the “growth of bacteria on duplicate plates” value [4, 14] of the same compound?
Its value is “− −”.

And the MBC [4]?
The MBC was >1.56%.

What about the MIC [4] of the same compound?
The MIC was 0.63%.
